Assay results taken from US4490388A, “Amidine compound and anticomplement agent comprising same” (Torii & Co., Ltd., priority 1981, dated 1984).
Like-named read-outs stand apart in the source and are kept apart here.

Tests used:
complement = experiment: Inhibition of complement mediated hemolysis; assay type: cell-based; conditions: read-out: Inhibition of complement mediated hemolysis (%)
Method: The complement mediated hemolysis is widely used as a means to determine the titration of complement. The principle of this method is based on the fact that hemolysis is caused by the activation of complement, when the latter is added to a complex (immune complex) of erythrocytes and the autibody thereof. The degree of hemolysis varies in proportion to the amount of complement added. Therefore, when a known amount of complement admixed with a C1 esterase inhibitor is used, the hemolysis must be suppressed in proportion to the inhibitory activity.
The anti-C1 esterase (C1r, C1s) activity was determined according to the method of Okamura et al. [K. Okamura, M. Muramatsu and B. Fujii, Biochem. Biophys. […] The inhibition of complement mediated hemolysis was determined according to the method of Baker et al. [B. R. Baker and E. H. Erickson, J. Med. Chem., 12, 408-414 (1969)].

Trypsin = target: T1, Trypsin (Bos taurus, UniProt P00760); experiment: Anti-trypsin activity (hydrolysis of TAME); assay type: biochemical; conditions: molar concentration inhibiting 50% of TAME hydrolysis; read-out: id50, Trypsin
T1 sequence (P00760 24-246): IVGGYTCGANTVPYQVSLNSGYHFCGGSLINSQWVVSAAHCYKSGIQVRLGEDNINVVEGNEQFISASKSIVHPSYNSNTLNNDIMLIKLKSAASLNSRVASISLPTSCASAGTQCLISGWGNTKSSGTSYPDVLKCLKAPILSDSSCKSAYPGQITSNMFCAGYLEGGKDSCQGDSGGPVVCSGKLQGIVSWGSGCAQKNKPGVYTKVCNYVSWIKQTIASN
Method: (§1) The anti-trypsin, anti-plasmin, anti-kallikrein and anti-thrombin activities were determined according to the method of Muramatsu et al. [M. Muramatsu, T. Onishi, S. Makino, Y. Hayashi and S. Fujii, J. of Biochem., 58, 214 (1965)]. The data summarized in Table 1 are expressed in terms of molar concentration (id50) of the test compound which inhibits 50% of the activity of each enzyme to hydrolyze TAME (tosylarginine methyl ester). The compound No. corresponds to the compound number shown in Examples.

Thrombin = Thrombin (Bos taurus, UniProt P00735); experiment: Anti-thrombin activity (hydrolysis of TAME); assay type: biochemical
Method: as §1

Plasmin = Plasmin (Homo sapiens, UniProt P00747); experiment: Anti-plasmin activity (hydrolysis of TAME); assay type: biochemical; conditions: molar concentration inhibiting 50% of TAME hydrolysis; read-out: id50, Plasmin
Method: as §1

C1r = target: T2, C1r (Homo sapiens, UniProt P00736); experiment: Anti-C1 esterase activity, C1r (hydrolysis of AAME); assay type: biochemical; conditions: molar concentration inhibiting 50% of AAME hydrolysis; read-out: Anti-C1 activity, C1r id50
T2 sequence (P00736 464-705 limits assumed): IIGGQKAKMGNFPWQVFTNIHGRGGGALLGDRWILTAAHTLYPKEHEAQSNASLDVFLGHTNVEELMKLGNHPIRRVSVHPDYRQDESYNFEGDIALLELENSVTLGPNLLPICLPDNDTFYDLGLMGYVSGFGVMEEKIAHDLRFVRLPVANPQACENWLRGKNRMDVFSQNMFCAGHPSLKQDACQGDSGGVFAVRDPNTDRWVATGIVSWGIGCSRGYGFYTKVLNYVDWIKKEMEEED
T2 sequence (P00736 18-463 partner limits assumed): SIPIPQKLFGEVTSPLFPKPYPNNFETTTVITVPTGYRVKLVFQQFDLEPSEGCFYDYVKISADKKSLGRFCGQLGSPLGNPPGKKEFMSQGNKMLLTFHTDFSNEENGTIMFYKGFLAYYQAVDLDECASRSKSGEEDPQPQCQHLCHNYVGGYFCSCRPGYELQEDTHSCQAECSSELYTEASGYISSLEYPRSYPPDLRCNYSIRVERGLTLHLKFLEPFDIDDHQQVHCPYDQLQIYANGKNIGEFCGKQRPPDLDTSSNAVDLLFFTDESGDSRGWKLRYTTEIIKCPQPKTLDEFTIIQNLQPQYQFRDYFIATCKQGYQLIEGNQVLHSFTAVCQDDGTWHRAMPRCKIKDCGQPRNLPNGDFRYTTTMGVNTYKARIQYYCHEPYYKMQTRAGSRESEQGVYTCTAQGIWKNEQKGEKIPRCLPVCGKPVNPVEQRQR
Method: The anti-C1 esterase (C1r, C1s) activity was determined according to the method of Okamura et al. [K. Okamura, M. Muramatsu and B. Fujii, Biochem. Biophys. […] The figures in Table 2 have the following meanings:
C1r: Molar concentration of the test compound which inhibits 50% of the ability of C1r to hydrolyse AAME (acetylarginin methyl ester) (id50).

Sequence of Plasmin (P00747 581-810 limits assumed): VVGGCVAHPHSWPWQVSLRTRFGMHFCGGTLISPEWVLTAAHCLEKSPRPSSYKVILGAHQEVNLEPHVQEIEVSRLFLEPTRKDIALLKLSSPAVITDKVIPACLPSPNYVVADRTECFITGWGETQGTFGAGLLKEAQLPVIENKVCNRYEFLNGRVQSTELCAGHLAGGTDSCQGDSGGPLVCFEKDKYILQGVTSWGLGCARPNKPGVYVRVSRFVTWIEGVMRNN
Sequence of Plasmin (P00747 97-580 partner limits assumed): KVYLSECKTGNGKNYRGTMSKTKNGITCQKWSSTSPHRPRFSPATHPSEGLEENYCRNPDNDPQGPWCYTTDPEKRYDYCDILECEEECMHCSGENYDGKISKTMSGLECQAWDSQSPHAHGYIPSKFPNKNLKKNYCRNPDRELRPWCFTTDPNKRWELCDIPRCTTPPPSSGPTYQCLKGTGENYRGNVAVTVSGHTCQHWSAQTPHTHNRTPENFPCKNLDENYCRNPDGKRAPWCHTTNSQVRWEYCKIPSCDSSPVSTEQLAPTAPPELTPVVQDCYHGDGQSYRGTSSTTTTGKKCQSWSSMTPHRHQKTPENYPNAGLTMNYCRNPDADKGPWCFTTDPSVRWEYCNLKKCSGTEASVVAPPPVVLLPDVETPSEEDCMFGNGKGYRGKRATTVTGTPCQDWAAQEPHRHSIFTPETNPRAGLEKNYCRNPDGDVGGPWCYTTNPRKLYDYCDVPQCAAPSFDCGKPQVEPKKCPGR

IC50 (C1r) [µM]	SMILES	inhibition at 100 µM (complement; 1 × 10^-4 M) [%]	inhibition at 10 µM (complement; 1 × 10^-5 M) [%]	inhibition at 0.1 µM (complement; 1 × 10^-7 M) [%]	inhibition at 1 µM (complement) [%]	inhibition at 1 µM (complement; 1 × 10^-6 M) [%]	inhibition at 0.1 µM (complement) [%]	inhibition at 100 µM (complement) [%]	inhibition at 10 µM (complement) [%]	IC50 (Trypsin) [µM]	IC50 (Thrombin) [µM]	IC50 (Plasmin) [µM]
–	N=C(N)C=Cc1ccc(OC(=O)C=Cc2ccccc2)cc1 [Compound 17, 4-(β-amidinoethenyl)phenyl cinnamate]	93	97	58	83	–	–	–	–	–	–	–
–	CC(=O)Oc1ccc(C=CC(=N)N)cc1 [Compound 1, 4-(β-amidinoethenyl)phenyl acetate]	–	71	–	–	64	10	99	–	–	–	–
–	N=C(N)C=Cc1ccc(OC(=O)CCCc2ccccc2)cc1 [Compound 16, 4-(β-amidinoethenyl)phenyl 4-phenylbutyrate]	–	34	0	–	0	–	96	–	–	–	–
–	Cc1cccc(C(=O)Oc2ccc(C=CC(=N)N)cc2)c1 [Compound 19]	95	98	–	–	65	37	–	–	–	–	–
–	CCC(=Cc1ccc(NC(=N)N)cc1)C(=O)Oc1ccc(C=CC(=N)N)cc1 [Compound 36]	93	–	0	–	8	–	–	40	5	5	> 10
–	N=C(N)C=Cc1ccc(OC(=O)c2ccc3c(c2)OCO3)cc1 [Compound 27]	100	99	44	–	88	–	–	–	–	–	–
–	COc1ccc(C(=O)Oc2ccc(C=CC(=N)N)cc2)cc1OC [Compound 24]	76	20	0	–	8	–	–	–	–	–	–
–	Cc1ccc(C(=O)Oc2ccc(C=CC(=N)N)cc2)cc1C [Compound 21]	87	–	22	–	37	–	–	88	–	–	–
–	COC(=O)c1ccc(C(=O)Oc2ccc(C=CC(=N)N)cc2)cc1 [Compound 29]	98	93	25	–	57	–	–	–	–	–	–
–	COc1ccc(CCC(=O)Oc2ccc(C=CC(=N)N)cc2)cc1 [Compound 25]	62	0	0	–	0	–	–	–	–	–	–
–	Cc1ccccc1C(=O)Oc1ccc(C=CC(=N)N)cc1 [Compound 18]	91	38	0	–	12	–	–	–	–	–	–
–	N=C(N)C=Cc1ccc(OC(=O)c2ccc([N+](=O)[O-])cc2)cc1 [Compound 37]	100	99	94	–	95	–	–	–	–	–	–
2	N=C(N)C=Cc1ccc(OC(=O)C2CC2)cc1 [Compound 5, 4-(β-amidinoethenyl)phenyl cyclopropanecarboxylate]	100	100	16	–	81	–	–	–	6	–	2
–	N=C(N)C=Cc1ccc(OC(=O)C2CCCCC2)cc1 [Compound 6]	99	93	0	–	14	–	–	–	–	–	–
